Measurements reported in US20110098296A1, “Thiazole And Oxazole Kinase Inhibitors” (priority 2007, published 2011).

Columns and labels:
[1] = system: HN5 tumor cells; assay: Method C: Cell Growth Inhibition Assay (CellTiter-Glo), HN5; format: cell-based; conditions: Homo sapiens, 72 h, 3 days, 4-parameter fit
Method in brief: (§1)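 Luminescent ATP signal (CellTiter-Glo, after 30 min room-temperature equilibration) served as a surrogate for cell number after a 3-day compound exposure at 37° C. Cells were plated at 500/well and treated with serially diluted compound at 0.2% DMSO. IC50 values are 4-parameter fits against DMSO-treated wells.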

[2] = system: HT-29 tumor cells; assay: Method C: Cell Growth Inhibition Assay (CellTiter-Glo), HT-29; format: cell-based; conditions: Homo sapiens, HT-29, 72 h, 3 days, 4-parameter fit
Method in brief: as §1

[3] = system: BT474 tumor cells; assay: Method C: Cell Growth Inhibition Assay (CellTiter-Glo), BT474; format: cell-based; conditions: Homo sapiens, BT-474, 72 h, 3 days, 4-parameter fit
[4] = system: SK-MEL-28 tumor cells; assay: Method C: Cell Growth Inhibition Assay (CellTiter-Glo), SK-MEL-28; format: cell-based; conditions: Homo sapiens, SK-MEL-28, 72 h, 3 days, 4-parameter fit
Method in brief: as §1

[5] = system: Colo205 tumor cells; assay: Method C: Cell Growth Inhibition Assay (CellTiter-Glo), Colo205; format: cell-based; conditions: Homo sapiens, COLO 205, 72 h, 3 days, 4-parameter fit
Method in brief: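 Growth inhibition is expressed as the concentration giving 50% inhibition relative to vehicle controls, derived from a 4-parameter fit. Tumor cells plated at 500 per well were exposed for 3 days to compound (0.2% DMSO) before total ATP was quantified by CellTiter-Glo.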

[6] = molecular target: B-Raf (Homo sapiens, UniProt P15056); assay: B-Raf Accelerated MEK ATPase assay (BRAMA); format: biochemical; conditions: Method (A): BRAMA, kinetic read
Method: Compounds of the present invention were tested for B-Raf protein serine kinase inhibitory activity in a B-Raf Accelerated MEK ATPase assay (BRAMA). The BRAMA assay is a high sensitivity assay which measures an intrinsic MEK-mediated ATP hydrolysis uncoupled from downstream ERK phosphorylation by coupling the formation of ADP to NADH oxidation through the enzymes pyruvate kinase and lactate dehydrogenase. When ADP production is initiated by addition of catalytic amounts of an activated Raf enzyme and non-phosphorylated MEK, one observes robust ADP production concomitant with Raf-mediated phosphorylation of MEK.
Method A: Specific details of the assay are disclosed in: C. Rominger, M. Schaber, E. May. Assay for B-Raf Activity Based on Intrinsic MEK ATPase Activity. Statutory Invention Registration Ser. No. 11/084,993 (March, 2005). Method B: The method is the same as method A, but includes the following changes: 1) the assay was performed with a final MEK concentration of 150 nM and 2) the assay was read as single end point instead of a kinetic read.

[7] = system: A375P F11s tumor cells; assay: Method C: Cell Growth Inhibition Assay (CellTiter-Glo), A375P F11s; format: cell-based; conditions: Homo sapiens, 72 h, 3 days, 4-parameter fit
Method in brief: as §1

Sequence of B-Raf (P15056 whole entry): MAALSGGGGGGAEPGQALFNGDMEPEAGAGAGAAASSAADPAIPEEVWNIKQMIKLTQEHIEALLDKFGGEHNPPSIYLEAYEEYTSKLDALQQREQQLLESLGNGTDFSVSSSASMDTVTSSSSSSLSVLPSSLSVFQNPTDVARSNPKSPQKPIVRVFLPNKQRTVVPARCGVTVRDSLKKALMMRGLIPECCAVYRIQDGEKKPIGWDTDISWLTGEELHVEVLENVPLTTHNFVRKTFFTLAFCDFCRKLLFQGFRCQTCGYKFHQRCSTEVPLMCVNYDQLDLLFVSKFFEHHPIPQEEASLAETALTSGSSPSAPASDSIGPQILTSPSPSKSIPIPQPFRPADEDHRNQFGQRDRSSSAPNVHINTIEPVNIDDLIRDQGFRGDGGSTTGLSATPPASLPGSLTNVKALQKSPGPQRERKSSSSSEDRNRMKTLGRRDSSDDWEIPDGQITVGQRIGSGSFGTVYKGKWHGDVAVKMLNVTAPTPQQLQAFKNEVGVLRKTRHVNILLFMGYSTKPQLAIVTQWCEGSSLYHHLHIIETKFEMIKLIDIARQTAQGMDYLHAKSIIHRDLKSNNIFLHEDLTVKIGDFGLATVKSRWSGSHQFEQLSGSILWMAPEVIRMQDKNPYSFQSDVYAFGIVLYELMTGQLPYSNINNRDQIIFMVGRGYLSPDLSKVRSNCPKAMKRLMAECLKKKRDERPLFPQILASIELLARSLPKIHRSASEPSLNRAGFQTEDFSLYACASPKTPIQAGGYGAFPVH

Row | SMILES | IC50 [1] [nM] | IC50 [2] [nM] | IC50 [3] [nM] | IC50 [4] [nM] | IC50 [5] [nM] | IC50 [6] [nM] | IC50 [7] [nM]
1 | COc1cc(Nc2nccc(-c3sc(N)nc3-c3cccc(NC(=O)c4c(F)cccc4F)c3)n2)cc(OC)c1OC [Example 16, N-[3-(2-Amino-5-{2-[(3,4,5-trimethoxyphenyl)amino]pyrimidiN-4-yl}-1,3-thiazol-4-yl)phenyl]-2,6-difluorobenzamide] | < 100 | 100 to 1000 | < 100 | – | – | – | –
2 | COc1ccc(Nc2nccc(-c3sc(N)nc3-c3cccc(NC(=O)c4c(F)cccc4F)c3)n2)cc1N1CCNCC1 [Example 18, N-[3-(2-Amino-5-{2-[(4-methoxy-3-piperaziN-1-ylphenyl)amino]pyrimidiN-4-yl}-1,3-thiazol-4-yl)phenyl]-2,6-difluorobenzamide] | – | – | 100 to 1000 | > 1000 | > 1000 | – | –
3 | Cc1cc(-c2sc(N)nc2-c2cccc(NC(=O)c3c(F)cccc3F)c2)nc(Nc2cccc(F)c2)n1 [Example 48, N-[3-(2-Amino-5-{2-[(3-fluorophenyl)amino]-6-methyl-4-pyrimidinyl}-1,3-thiazol-4-yl)phenyl]-2,6-difluorobenzamide] | > 1000 | – | > 1000 | – | > 1000 | > 1000 | –
4 | CCNc1nc(-c2cccc(NC(=O)C3CC3)c2)c(-c2ccnc(Nc3ccc(OCCN4CCCC4)c(Cl)c3)n2)s1 [Example 63, N-{3-[5-{2-[(3-Chloro-4-{[2-(1-pyrrolidinyl)ethyl]oxy}phenyl)amino]-4-pyrimidinyl}-2-(ethylamino)-1,3-thiazol-4-yl]phenyl}cyclopropanecarboxamide] | 100 to 1000 | 100 to 1000 | 100 to 1000 | > 1000 | – | – | 100 to 1000
5 | Nc1nc(-c2cccc(C(=O)Nc3c(F)cccc3F)c2)c(-c2ccnc(Nc3cccc(CN4CCCC4)c3)n2)s1 [Example 77, 3-[2-Amino-5-(2-{[3-(1-pyrrolidinylmethyl)phenyl]amino}-4-pyrimidinyl)-1,3-thiazol-4-yl]-N-(2,6-difluorophenyl)benzamide] | 100 to 1000 | 100 to 1000 | 100 to 1000 | > 1000 | – | – | 100 to 1000
6 | Cc1nc(-c2cccc(NC(=O)c3c(F)cccc3F)c2)c(-c2ccnc(Nc3ccc(OCCN(C)C)c(Cl)c3)n2)s1 [Example 103, N-[3-(5-{2-[(3-Chloro-4-{[2-(dimethylamino)ethyl]oxy}phenyl)amino]-4-pyrimidinyl}-2-methyl-1,3-thiazol-4-yl)phenyl]-2,6-difluorobenzamide] | < 100 | – | < 100 | > 1000 | – | – | –
7 | Cc1nc(-c2cccc(NC(=O)c3c(F)cccc3F)c2)c(-c2ccnc(Nc3ccc(OC4CCN(C(=O)OCc5ccccc5)CC4)c(F)c3)n2)s1 [Example 106] | – | – | > 1000 | > 1000 | > 1000 | 100 to 1000 | –
8 | CCc1nc(-c2cccc(NC(=O)c3c(F)cccc3F)c2)c(-c2ccnc(Nc3cccc(CN4CCCC4)c3)n2)s1 [Example 115, N-{3-[2-Ethyl-5-(2-{[3-(1-pyrrolidinylmethyl)phenyl]amino}-4-pyrimidinyl)-1,3-thiazol-4-yl]phenyl}-2,6-difluorobenzamide] | 100 to 1000 | 100 to 1000 | 100 to 1000 | > 1000 | 100 to 1000 | 100 to 1000 | > 1000
9 | Cc1nc(-c2cccc(NC(=O)c3cc(F)ccc3F)c2)c(-c2ccnc(Nc3ccc(OCCN(C)C)c(Cl)c3)n2)o1 [Example 142] | 100 to 1000 | – | – | > 1000 | – | – | –
